We go through four substances from publication PMC8481536, “Wells–Dawson phosphotungstates as mushroom tyrosinase inhibitors: a speciation study” (Scientific Reports, 2021).

A short description of series [1]: Charge density (q/m, charges per addenda metal ion) of POT anions. The conditions noted are these: for Charge density q/m of the anion: Wells–Dawson POTs and their products; for Charge density q/m of POT product Hx[α2-P2W17O61](10−x)−, x = 3 / Charge density q/m of POT product Hx[α2-P2W17O61](10−x)−, x = 4: product formed from the educt at pH 6.8. The format is physicochemical. The text has this: The charge density of POMs, expressed in number of charges (q) per addenda metal ions (m), is a criterion to characterize the chaotropic behavior of POMs (Table S6)[49]–[53]. […] The activity of [P2W18]^6−, [P2W17]^10− and [P2W15]^12− solutions correlates with the amount of the dominant monolacunary anion [α2-P^V2W^VI17O61]^10− in Na-citrate buffer at pH 6.8 (Fig. 3, Scheme S1). For the unprotonated form of the active monolacunary Wells–Dawson anion [α2-P^V2W^VI17O61]^10− the q/m ratio is 0.59 (Table 2), however, the protonation of this anion in neutral solutions has previously been shown by electrochemical analysis in combination with theoretical calculations[47],[55]. For POMs the proton affinity difference between the terminal and bridging oxygen is around 11 kcal mol^−1[56], proving that the four oxygen atoms surrounding the lacuna are much more basic than the bridging and terminal O atoms (Fig. 1B), and thus prone to protonation. Electrospray-ionization mass spectrometry (ESI–MS) has already been successfully used for the protonation states assignment of Wells–Dawson POTs containing different heteroatoms. Consequently, ESI–MS has been applied to investigate the protonation state of monolacunary [α2-P^V2W^VI17O61]^10−. When recording ESI–MS for POMs in Na-citrate buffer, the relative intensity of citrate anion signals is almost 100%, suppressing POM signals. […] The spectra recorded in both solvents show signals for NaH4[α2-P^V2W^VI17O61]^5- at 838.0 and NaKH3[α2-P^V2W^VI17O61]^5- at 845.6 m/z, while species with lower protonation states have not been detected (Fig. S19). Therefore, the monolacunary anion [α2-P^V2W^VI17O61]^10− is present as the three-fold protonated anion H3[α2-P^V2W^VI17O61]^7- with a charge density of 0.41 and the four-fold protonated anion H4[α2-P^V2W^VI17O61]^6− with a charge density of 0.35. The predominant species in [P2W12]^12− is the wheel-shaped [P^V8W^VI48O184]^40− (23%), which can be protonated to H16[P^V8W^VI48O184]^24−[58] q/m = 0.5. Due to the compositional complexity of the hexalacunary anion it is impossible to accurately correlate its activity with the POTs’ charge density.
10 Summary of POT charge densities of Keggin and Wells-Dawson POTs
In order to facilitate comparison of the inhibitory capacities of the Keggin and Wells-Dawson POT samples tested in our laboratory against AbPPO4 and to obtain a structure-activity correlation, the charge densities (anionic charge per W addenda atom) of the species present […]
the charge densities, the following stability windows for POTs can be identified:
1) intact closed clusters: q/m ≈ 0.33 – 0.50
Structures with higher charge densities were not analyzed. Structures with a q/m value lower than 0.33 are prone to hydrolysis or reduction under suitable conditions, both leading to an increase in charge density.
2) lacunary clusters: q/m = 0.35 – 0.45
Structures with lower charge densities were not analyzed. Structures with a q/m value higher than 0.45 achieve stabilization by taking up protons for charge compensation. However, too […]
these pathways result in a decrease in charge density.
Overall, the preferred stable charge densities at neutral pH of both the intact and lacunary POTs […]
for intact clusters. This seems to be an intrinsic POT property as a combined result of 1) the reactivity of lacunary oxygen sites and 2) the hydrolytic susceptibility to hydroxide anions in aqueous solution in competition with electrostatic repulsion with the anionic POT charge. […]
metal centers in their oxygen-bound environment.
The scenario is different when looking at the POT interaction with the enzyme AbPPO4. Among […]
values show a clear correlation to the q/m values, with the lowest charge density corresponding to the highest protein affinity. But going to the larger Wells-Dawson archetype, comparing the active lacunary species H [PVWVI O ]4- (Keggin) and H [α -PV WVI O ](10-x)- (x = 3 or 4) (Wells- […]
charge densities. As stated in the main text, the basic inhibition effect shown by the Wells- […]

Another series relates to aquaporin-3. Set-up: method as in PMID 32252345. The conditions noted are these: cited from earlier work.
In the next series the test system is P-type ATPase. Set-up: method as in PMID 29313547. The conditions noted are these: cited from earlier work.
The next series has as its system Ca^2+-ATPase. The arrangement: method as in PMID 29313547. The conditions noted are these: cited from earlier work.

For the substance “K10[α2-P^V2W^VI17O61]·20H2O [[P2W17]^10−]”, in series [1], the “Charge density q/m of the anion” value was determined as 0.59; the “Charge density q/m of POT product Hx[α2-P2W17O61](10−x)−, x = 3” value (from here on “Charge density q/m … x = 3”) was found to be 0.41; the “Charge density q/m of POT product Hx[α2-P2W17O61](10−x)−, x = 4” value (“Charge density q/m … x = 4” for short) worked out at 0.35.
“(NH4)12[H2P^V2W^VI12O48]·24H2O [[P2W12]^12−]”: in the series with aquaporin-3, the “Inhibition of aquaporin-3” value was “inhibited”. For the same substance, in the series with P-type ATPase, the “Inhibition of P-type ATPase” value is reported as “inhibited”. Also, the “Charge density q/m of the anion” value is 1.00 in series [1] (listed as H2[PV2WVI12O48]12-) and 1 in series [1] (listed as H2[P^V2W^VI12O48]^12−). In addition, the “Inhibition of Ca2+-ATPase” value in the series with Ca^2+-ATPase is “inhibited”.
In the case of K12[P^V2W^VI15O56]·24H2O [[P2W15]^12−], in series [1] (listed as [PV2WVI15O56]12-), the “Charge density q/m of the anion” value came out at 0.80. In series [1] (listed as [P^V2W^VI15O56]^12−), the “Charge density q/m of the anion” value worked out at 0.8. In series [1], the “Charge density q/m … x = 3” value is listed as 0.41 and the “Charge density q/m … x = 4” value was 0.35.
Take “K6[α/β-P^V2W^VI18O62]·14H2O [[P2W18]^6−]”: the “Inhibition of aquaporin-3” value with aquaporin-3 is reported as “inhibited”. Besides, the “Inhibition of P-type ATPase” value in the series with P-type ATPase was “inhibited”. Besides, in series [1], the “Charge density q/m of the anion” value was 0.33; the “Charge density q/m … x = 3” value came out at 0.41; the “Charge density q/m … x = 4” value turned out to be 0.35. In addition, the “Inhibition of Ca2+-ATPase” value in the series with Ca^2+-ATPase is listed as “inhibited”.
